The values below are quoted from earlier work in patent US8119691B2, “Method for treating airway hyper-responsiveness with lipoxin analogs” (National Institutes of Health (NIH), priority 2001, dated 2012).

Each structure is given as a SMILES string.

Data set [1] deals with airway smooth muscle. The note with it: in vitro (ref. 23); cited from earlier work.
Data set [2] has as its system human asthmatics. Particulars: native LXA4 given to human asthmatics (ref. 22); cited from earlier work.
Data set [3] relates to eosinophil. Particulars: cited from earlier work.
Data set [4] concerns the target T1, recombinant cysLT1 receptors (Homo sapiens, UniProt Q9Y271).
T1 construct: host or cells: Chinese hamster ovary cells (recombinant expression)
T1 sequence (Q9Y271 1-337): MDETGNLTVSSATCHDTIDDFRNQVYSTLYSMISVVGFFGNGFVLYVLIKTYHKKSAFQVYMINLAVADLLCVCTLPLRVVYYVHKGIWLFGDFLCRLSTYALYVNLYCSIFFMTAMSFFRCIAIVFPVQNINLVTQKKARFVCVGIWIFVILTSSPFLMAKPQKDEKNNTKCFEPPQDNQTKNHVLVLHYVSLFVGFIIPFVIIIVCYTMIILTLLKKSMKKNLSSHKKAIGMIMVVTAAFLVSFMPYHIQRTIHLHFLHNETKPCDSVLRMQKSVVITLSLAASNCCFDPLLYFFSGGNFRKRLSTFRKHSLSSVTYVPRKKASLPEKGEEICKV
The note with it: CHO cells, in vitro (ref. 12); cited from earlier work.

In the case of `CCCCC[C@H](O)/C=C/C=C\C=C\C=C\[C@@H](O)[C@@H](O)CCCC(=O)O` [LXA4, Lipoxin A4], the “LTD4-initiated constriction of airway smooth muscle” value in data set [1] was “blocks LTD4-initiated constriction of airway smooth muscle in vitro”. Moreover, the LTC4-stimulated airway hyper-responsiveness entry in data set [2] is recorded as “inhibits LTC4-stimulated airway hyper-responsiveness”. Also, in data set [3], the eosinophil chemotaxis entry is reported as “directly inhibits eosinophil chemotaxis”. In addition, the “competition for binding at LTD4 recognition sites and recombinant cysLT1 receptors” value in data set [4] was “compete for binding with high affinity at LTD4 recognition sites”.
